{"source": "patent US9199959B2", "about": "“HIV replication inhibitor” (Shionogi & Co., Ltd., priority 2011, dated 2015)", "key": {"[1]": {"system": "Salmonella typhimurium TA98 strain, TA100 strain", "assay_type": "cell-based", "settings": "Salmonella typhimurium TA98, TA100, non-metabolism and metabolism activating condition", "experimental": "The mutagenicity of the compound of the present invention was assayed.\n20 μL of freezing-stored rat typhoid bacillus (Salmonella typhimurium TA98 strain, TA100 strain) was inoculated on 10 mL of a liquid nutrient medium (2.5% Oxoid nutrient broth No. 2), and this was cultured before shaking at 37° C. for 10 hours. 9 mL of a bacterial solution of the TA98 strain was centrifuged (2000×g, 10 minutes) to remove a culturing solution. The bacteria was suspended in F buffer (K2HPO4: 3.5 g/L, KH2PO4: 1 g/L, (NH4)2SO4: 1 g/L, trisodium citrate dehydrate: 0.25 g/L, MgSO4.7H2O: 0.1 g/L), and the suspension was added to 110 mL of an Exposure medium (Micro F buffer containing Biotin: 8 μg/mL, histidine: 0.2 μg/mL, glucose: 8 mg/mL). The TA100 strain was added to 120 mL of the Exposure medium per 3.16 mL of the bacterial solution to prepare a test bacterial solution. […] of a test substance DMSO solution (several stage dilution from maximum dose 50 mg/mL at 2- to 3-fold ratio), DMSO as a negative control, 50 μg/mL of 4-nitroquinoline-1-oxide DMSO solution for the TA98 strain, 0.25 μg/mL of 2-(2-furyl)-3-(5-nitro-2-furyl)acrylamide DMSO solution for the TA100 strain each under the non-metabolism activating condition, 40 μg/mL of 2-aminoanthracene DMSO solution for the TA98 strain, 20 μg/mL of 2-aminoanthracene DMSO solution for the TA100 strain each under the metabolism activating condition all as a positive control, and 588 μL of the test bacterial solution (a mixed solution of 498 μL of the test bacterial solution and 90 μL of S9 mix under the metabolism activating condition) were mixed, and this was shaking-cultured at 37° C. for 90 minutes. […] Since a well containing a bacterium which has obtained the proliferation ability by mutation of an amino acid (histidine) synthesizing enzyme gene turns from purple to yellow due to a pH change, the bacterium proliferation well which has turned to yellow in 48 wells per dose is counted, and was assessed by comparing with a negative control group. […]"}, "[2]": {"target": "T1, CYP1A2 (Homo sapiens, UniProt P05177)", "T1 construct": "enzyme, pooled human hepatic microsome 0.2 mg protein/mL; from tissue; host or cells: pooled human liver microsomes", "T1 sequence (P05177 1-516)": "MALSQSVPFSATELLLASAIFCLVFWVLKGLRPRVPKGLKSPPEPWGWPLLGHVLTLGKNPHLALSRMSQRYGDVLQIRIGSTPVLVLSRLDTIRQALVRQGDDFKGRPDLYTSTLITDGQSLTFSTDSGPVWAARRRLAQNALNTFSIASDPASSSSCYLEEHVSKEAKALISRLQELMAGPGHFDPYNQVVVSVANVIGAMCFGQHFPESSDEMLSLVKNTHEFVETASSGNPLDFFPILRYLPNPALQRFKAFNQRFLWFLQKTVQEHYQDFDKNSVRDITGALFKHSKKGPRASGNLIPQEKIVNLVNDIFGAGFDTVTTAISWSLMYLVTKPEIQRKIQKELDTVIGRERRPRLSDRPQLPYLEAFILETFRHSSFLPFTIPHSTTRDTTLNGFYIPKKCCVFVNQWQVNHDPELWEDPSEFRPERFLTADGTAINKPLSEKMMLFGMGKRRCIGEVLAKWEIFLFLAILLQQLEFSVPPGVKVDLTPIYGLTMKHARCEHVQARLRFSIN", "experiment": "CYP inhibition assay, 7-ethoxyresorufin O-deethylation", "assay_type": "in vitro ADME", "settings": "pooled human liver microsomes, probe 7-ethoxyresorufin (O-deethylation), 0.5 μmol/L, pooled human hepatic microsome", "experimental": "(§1) Using commercially available pooled human hepatic microsome, and employing, as markers, 7-ethoxyresorufin O-deethylation (CYP1A2), tolbutamide methyl-hydroxylation (CYP2C9), mephenytoin 4′-hydroxylation (CYP2C19), dextromethorphan O-demethylation (CYP2D6), and terfenedine hydroxylation (CYP3A4) as typical substrate metabolism reactions of human main five CYP enzyme forms (CYP1A2, 2C9, 2C19, 2D6, 3A4), an inhibitory degree of each metabolite production amount by a test compound was assessed.\n(§2) The reaction conditions were as follows: substrate, 0.5 μmol/L ethoxyresorufin (CYP1A2), 100 μmol/L tolbutamide (CYP2C9), 50 μmol/L S-mephenytoin (CYP2C19), 5 μmol/L dextromethorphan (CYP2D6), 1 μmol/L terfenedine (CYP3A4); reaction time, 15 minutes; reaction temperature, 37° C.; enzyme, pooled human hepatic microsome 0.2 mg protein/mL; test drug concentration, 1, 5, 10, 20 μmol/L (four points).\n(§3) Each five kinds of substrates, human hepatic microsome, and a test drug in 50 mmol/L Hepes buffer as a reaction solution was added to a 96-well plate as the composition as described above, NADPH, as a cofactor was added to initiate metabolism reactions as markers and, after the incubation at 37° C. for 15 minutes, a methanol/acetonitrile=1/1 (v/v) solution was added to stop the reaction. After the centrifugation at 3000 rpm for 15 minutes, resorufin (CYP1A2 metabolite) in the supernatant was quantified by a fluorescent multilabel counter and tolbutamide hydroxide (CYP2C9 metabolite), mephenytoin 4′ hydroxide (CYP2C19 metabolite), dextrorphan (CYP2D6 metabolite), and terfenadine alcohol (CYP3A4 metabolite) were quantified by LC/MS/MS.\n(§4) A reaction system containing only DMSO which is a solvent for dissolving a drug was adopted as a control (100%), and the remaining activity (%) was calculated, then IC50 was calculated by reverse presumption with a logistic model using a concentration and an inhibition rate."}, "[3]": {"target": "T2, CYP2D6 (Homo sapiens, UniProt P10635)", "T2 construct": "enzyme, pooled human hepatic microsome 0.2 mg protein/mL; from tissue; host or cells: pooled human liver microsomes", "T2 sequence (P10635 whole entry)": "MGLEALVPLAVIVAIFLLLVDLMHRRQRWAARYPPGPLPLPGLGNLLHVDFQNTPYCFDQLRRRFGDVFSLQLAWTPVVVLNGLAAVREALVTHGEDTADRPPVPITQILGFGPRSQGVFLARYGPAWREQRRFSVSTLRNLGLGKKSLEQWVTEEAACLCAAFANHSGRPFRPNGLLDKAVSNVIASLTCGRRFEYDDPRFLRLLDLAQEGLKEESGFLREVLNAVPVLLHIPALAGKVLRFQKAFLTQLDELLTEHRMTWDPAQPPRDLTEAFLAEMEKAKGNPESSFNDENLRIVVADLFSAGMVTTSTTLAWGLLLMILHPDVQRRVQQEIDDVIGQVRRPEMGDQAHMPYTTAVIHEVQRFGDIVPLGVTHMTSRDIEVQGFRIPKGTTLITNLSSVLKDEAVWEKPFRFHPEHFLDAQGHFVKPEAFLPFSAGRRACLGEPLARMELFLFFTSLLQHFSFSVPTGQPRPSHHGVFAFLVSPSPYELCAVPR", "experiment": "CYP inhibition assay, dextromethorphan O-demethylation", "assay_type": "in vitro ADME", "settings": "pooled human liver microsomes, probe dextromethorphan (O-demethylation), 5 μmol/L, pooled human hepatic microsome", "experimental": "as §1, §2, §3, §4"}}, "data": [{"smiles": "CC(=O)Nc1c(C)c(C(OC(C)(C)C)C(=O)O)c(-c2ccc(C)c(C)c2)c(C)c1-c1ccc(C)c(C)c1", "note": "(stereo not drawn) [Compound I-6]", "values": [{"measurement": "mutagenicity", "setting": "[1]", "result": "negative"}, {"measurement": "IC50 at 15 min", "setting": "[2]", "result": "≥ 20", "unit": "µM"}, {"measurement": "IC50 at 15 min", "setting": "[3]", "result": "≥ 20", "unit": "µM"}]}]}
